Test results from patent US7494987B2, “Agent for treating respiratory diseases containing 4-hydroxypiperidine derivative as active ingredient” (priority 2002, dated 2009).

Columns and labels:
[1] = system: Citric Acid-Induced Cough Reflex in Guinea Pigs; experiment: Inhibitory effect on citric acid-induced cough reflex in guinea pigs (Experimental Example 1-1, plethysmograph); type: in vivo; conditions: oral, cough measured 1 hr after treatment
Method: Guinea pigs were fasted overnight. They were fixed to a plethysmograph, and then the change of inner pressure in the plethysmograph (body side) was recorded on an ink-recording paper (Nihon Kohden Corporation; WI-642G) via the differential pressure transducer (Nihon Kohden Corporation; TP-602T) and the respiration amplifier (Nihon Kohden Corporation; AR-601G). Using a nebulizer (OMRON Corporation; NE-U12), 20 W/V % citric acid solution was sprayed into the plethysmograph (head side) for 2 min (about 1 mL/min). The number of cough response for 15 min after the spray was measured.
(§1) The cough response was measured 3 hrs before and 1 hr after oral treatment. The test compound was not administered to the guinea pigs showing 5 coughs response or less before the treatment. The ratio of cough response between before and after the treatment (Post/Pre×100) was calculated, and the percent inhibition of the test compound on cough reflex induced by citric acid was determined according to the following formula: [(CRRcontrol−CRRtest)/(CRRcontrol)]×100 (%) • CRRcontrol: Ratio (%) of cough response in the control group • CRRtest: Ratio (%) of cough response in the compound-treated group

[2] = system: liver microsomes and hepatocytes of rats; experiment: Metabolic stability in liver microsomes and hepatocytes, rats; type: in vitro ADME
[3] = system: liver microsomes and hepatocytes of dogs; experiment: Metabolic stability in liver microsomes and hepatocytes, dogs; type: in vitro ADME
[4] = system: Wistar Hannover female rats; experiment: Toxicological study, 14-day repeated oral dose in rats; type: in vivo; conditions: 400 mg/kg/day once daily for 14 days
Method: The compound of Example 26 was orally given to 6-week-old Wistar Hannover female rats at 400 mg/kg/day once daily for 14 days.

[5] = Pharmacokinetics, time-course of plasma concentration after single oral treatment; type: in vivo, rhesus monkeys; conditions: for bioavailability: 3- or 4-year-old male rhesus monkeys; for area under the plasma concentration-time curve (AUC), dependence on dose / maximum plasma concentration (Cmax), dependence on dose / relationship between the dose and the plasma concentration: rhesus monkeys
Excerpt: The compound of Example 36 or Example 26 was studied about time-course of plasma concentration after single oral treatment to 3- or 4-year-old male rhesus monkeys. […] The relationship between the dose and the plasma concentration was linear. […] Therefore, it can be considered that these compounds are unlikely to be metabolized by first pass effect.

[6] = system: liver microsomes and hepatocytes of humans; experiment: Metabolic stability in liver microsomes and hepatocytes, humans; type: in vitro ADME
[7] = system: human drug-metabolizing enzymes; experiment: Inhibitory effect on human drug-metabolizing enzymes; type: in vitro ADME
[8] = system: male rhesus monkeys; experiment: Toxicological study, 14-day repeated oral dose in rhesus monkeys; type: in vivo
Method: The compound of Example 36 or Example 26 was orally given to 3-year-old male rhesus monkeys at 20 mg/kg/day or 40 mg/kg/day, respectively, once daily for 14 days.

[9] = system: male rhesus monkeys; experiment: Holter ECG test in rhesus monkeys; type: in vivo; conditions: oral, 4-year-old male rhesus monkeys
Method: In Holter ECG test, the compound of Example 36 or Example 26 was orally given to 4-year-old male rhesus monkeys at 40 mg/kg and 80 mg/kg, respectively.

[10] = system: liver microsomes and hepatocytes of monkeys; experiment: Metabolic stability in liver microsomes and hepatocytes, monkeys; type: in vitro ADME
[11] = system: Citric Acid-Induced Cough Reflex in Guinea Pigs; experiment: Inhibitory action on citric acid-induced cough reflex in guinea pigs (Experimental Example 1-2, nasal inhalation-exposure apparatus); type: in vivo; conditions: oral, 30 mg/kg, cough measured 1 hr after treatment
Method: Guinea pigs were fasted overnight. They were fixed to an nasal inhalation-exposure apparatus for small animals (M.I.P.S. Co., Ltd.), and then 20 W/V % citric acid solution was sprayed into the plethysmograph for 2 min (about 1 mL/min) using a nebulizer (M.I.P.S. Co., Ltd.). The number of cough response for 15 min after the spray was measured.
as §1, with “5 cough responses” for “5 coughs response”, “compound-treated group.” for “compound-treated group”

[12] = system: Wistar Hannover female rats; experiment: Toxicological study, oral dose in rats; type: in vivo; conditions: 40 mg/kg, 6-week-old rats
Method: The compound of Example 36 was orally given to 6-week-old Wistar Hannover female rats at 40 mg/kg.

[13] = 40 mg/kg/day once daily for 14 days
[14] = 20 mg/kg/day once daily for 14 days

COc1ccc2c3c1O[C@H]1[C@@H](O)C=C[C@H]4[C@@H](C2)N(C)CC[C@@]341 [Codeine phosphate]
Percent inhibition on cough reflex ([1]; 10 mg/kg): 40%
Percent inhibition on cough reflex ([1]; 30 mg/kg): 44%
Percent inhibition on cough reflex ([1]; 60 mg/kg): 66%

CN(CC1(O)CCN(CCc2ccc(C#N)cc2)CC1)c1ccc(C(=O)O)cc1.Cl [Example 26, 4-({1-[2-(4-cyanophenyl)ethyl]-4-hydroxypiperidin-4-ylmethyl}methylamino)benzoic acid monohydrochloride]
metabolic stability in liver microsomes and hepatocytes [2]: metabolically stable
metabolic stability in liver microsomes and hepatocytes [3]: metabolically stable
abnormality in general behaviors, weight gains, and food consumptions [4]: no abnormality
findings in hematological and biochemical examinations, organ weights and histopathological tests [4]: No abnormal findings
survival until 24 hours after the final treatment [4]: survived
bioavailability [5]: high
area under the plasma concentration-time curve (AUC), dependence on dose [5]: increased almost in proportion to the doses
maximum plasma concentration (Cmax), dependence on dose [5]: increased almost in proportion to the doses
relationship between the dose and the plasma concentration [5]: linear
metabolic stability in liver microsomes and hepatocytes [6]: metabolically stable
inhibitory effect on human drug-metabolizing enzymes [7]: almost no inhibitory effect
abnormality in weight gains and general behaviors [8, 13]: no abnormality
findings in hematological and biochemical examinations, organ weights and histopathological tests [8, 13]: No apparent toxicological findings
survival until 24 hours after the final treatment [8, 13]: survived
effect on electrocardiogram ([9]; 80 mg/kg): no effect
Percent inhibition on cough reflex ([1]; 30 mg/kg): 59%
metabolic stability in liver microsomes and hepatocytes [10]: metabolically stable

CN(CC1(O)CCN(CCc2ccc(C#N)cc2)C1)c1ccc(C(=O)O)cc1.Cl (centres unmarked) [Example 29, 4-({1-[2-(4-Cyanophenyl)ethyl]-3-hydroxypyrrolidin-3-ylmethyl}methylamino)benzoic acid monohydrochloride]
melting point: 122.8 to 132.5 °C
Percent inhibition on cough reflex [11]: 39%

CN(CC1(O)CN(CCc2ccc(C#N)cc2)C1)c1ccc(C(=O)O)cc1.Cl [Example 34, 4-({1-[2-(4-Cyanophenyl)ethyl]-3-hydroxyazetidin-3-ylmethyl}methylamino)benzoic acid monohydrochloride]
melting point: 209.1 to 210.5 °C
Percent inhibition on cough reflex [11]: 39%

CN(CC1(O)CCN(CCc2ccc(C(F)(F)F)cc2)CC1)c1ccc(C(=O)O)cc1.Cl [Example 35, 4-({4-hydroxy-1-[2-(4-trifluoromethylphenyl)ethyl]piperidin-4-ylmethyl}methylamino)benzoic acid monohydrochloride]
melting point: 235.1 to 246.9 °C
Percent inhibition on cough reflex [11]: 43%

Cl.N#Cc1ccc(CCN2CCC(O)(COc3ccc(C(=O)O)cc3)CC2)cc1 [Example 36, 4-{1-[2-(4-cyanophenyl)ethyl]-4-hydroxypiperidin-4-ylmethoxy}benzoic acid monohydrochloride]
metabolic stability in liver microsomes and hepatocytes [2]: metabolically stable
metabolic stability in liver microsomes and hepatocytes [3]: metabolically stable
bioavailability [5]: high
area under the plasma concentration-time curve (AUC), dependence on dose [5]: increased almost in proportion to the doses
maximum plasma concentration (Cmax), dependence on dose [5]: increased almost in proportion to the doses
relationship between the dose and the plasma concentration [5]: linear
abnormality in general behaviors [12]: no abnormality
survival during the examination period [12]: survived
metabolic stability in liver microsomes and hepatocytes [6]: metabolically stable
inhibitory effect on human drug-metabolizing enzymes [7]: almost no inhibitory effect
abnormality in weight gains and general behaviors [8, 14]: no abnormality
findings in hematological and biochemical examinations, organ weights and histopathological tests [8, 14]: No apparent toxicological findings
survival until 24 hours after the final treatment [8, 14]: survived
effect on electrocardiogram ([9]; 40 mg/kg): no effect
metabolic stability in liver microsomes and hepatocytes [10]: metabolically stable

COC(=O)c1ccc([S+]([O-])CC2(O)CCN(CCc3ccc(C#N)cc3)CC2)cc1 (centres unmarked) [Example 44, methyl 4-{1-[2-(4-cyanophenyl)ethyl]-4-hydroxypiperidin-4-ylmethylsulfinyl}benzoate]
melting point: 169.6 to 174.5 °C

COC(=O)c1ccc(S(=O)(=O)CC2(O)CCN(CCc3ccc(C#N)cc3)CC2)cc1 [Example 46, methyl 4-{1-[2-(4-cyanophenyl)ethyl]-4-hydroxypiperidin-4-ylmethylsulfonyl}benzoate]
melting point: 135.4 to 137.2 °C

Cn1c(=O)c2[nH]cnc2n(C)c1=O [Theophylline]
Percent inhibition on cough reflex ([1]; 20 mg/kg): 37%
